Reference: patent US20260027128A1 (priority 2016, published 2026)
Where two headings read alike, the source gives them in different places.

What was measured:
[1] = Plasma analysis and pharmacokinetics in Gottingen minipigs after intranasal administration (Example 4); conditions: for bioavailability: Bioavailability (0-tlast), intranasal, minipig No. 2; for Cmax: Cmax of Remimazolam
[2] = Solubility of remimazolam in inhalation vehicle (Example 2); conditions: concentrations >25 mg/mL
Gottingen minipigs [3] = experiment: Sedative effect score in Gottingen minipigs after single intranasal administration (Example 4); type: in vivo, minipig
[4] = Plasma levels of Remimazolam and its main metabolite CNS7054 in rats (Example 1)
[5] = Systemic and local tolerability (clinical signs, rhinoscopy, NOAEL) in Gottingen minipigs, single intranasal administration (Example 4); conditions: female, Gottingen, minipig, in vivo, inhaled or intranasal, 25 mg/animal
Gottingen minipigs [6] = experiment: as above; conditions: minipigs
[7] = study 32236, female minipigs, intravenous infusion 120 mg/kg; cited from earlier work
male rats [8] = experiment: Clinical observations in rats after intranasal or IV remimazolam (Example 1); type: in vivo, rat; conditions: intranasal dosing
male rats [9] = experiment: Tolerability in rats: mortality, body weight, Irwin observations, body temperature, pupil size, gross pathology (Example 1)
[10] = study Y08AG004, micropigs, cited from earlier work
[11] = minipig animal no. 2, intranasal 25 mg
[12] = intranasal 25 mg Remimazolam/animal

Q: Which “tmax of the metabolite (CNS7054)” value ([1]; minipig animal no. 2, intranasal 25 mg Remimazolam) does the source give for Cc1cnc2n1-c1ccc(Br)cc1C(c1ccccn1)=N[C@H]2CCC(=O)O [CNS7054] here?
A: 15 min

Q: What about the “tmax of the metabolite (CNS7054)” value ([1]; minipig animal nos. 1 and 3, intranasal 25 mg Remimazolam) of the same compound?
A: 60 min

Q: And the “Plasma level of metabolite CNS7054, GLP-validated method” value ([1]; minipigs, intranasal 25 mg Remimazolam, below LLOQ)?
A: < 100 ng/mL

Q: With COC(=O)CC[C@@H]1N=C(c2ccccn2)c2cc(Br)ccc2-n2c(C)cnc21 [Remimazolam, methyl 3-[(4S)-8-bromo-1-methyl-6-(pyridin-2-yl)-4H-imidazo[1,2-a][1,4]benzodiazepin-4-yl]propanoate] as the compound, how does the “Solubility in a reasonable inhalation vehicle” value [2] read?
A: could not be tested due to lack of solubility in a reasonable vehicle

Q: What about the “Sedative effects lasting up to” value (Gottingen minipigs [3]; [11]) of the same compound?
A: up to 30 minutes

Q: What about the “Start of sedative effects after administration” value (Gottingen minipigs [3]; [11]) of the same compound?
A: 5 min

Q: And the “Time of maximum sedative effect” value (Gottingen minipigs [3]; [11])?
A: 10 minutes p.a.

Q: What about the Sedative effect (Gottingen minipigs [3]; minipig animal nos. 1 and 3, intranasal 25 mg, scores of zero recorded) of the same compound?
A: not affected

Q: What about the “Systemic exposure following intranasal administration” value [4] of the same compound?
A: systemically exposed

Q: And the AUC(0-t) ([1]; female, Gottingen, minipig, plasma, inhaled or intranasal, 1.25 mg/kg, AUC0-last, present study (33659), minipig No. 2 (bw 20 kg), intranasal 1.25 mg/kg)?
A: 19.9 ng·h/mL

Q: What about the bioavailability ([1]; female, Gottingen, minipig, plasma, inhaled or intranasal, 1.25 mg/kg, reference Y08AG004 bolus (micropigs)) of the same compound?
A: 5.43%

Q: And the bioavailability ([1]; female, Gottingen, minipig, plasma, inhaled or intranasal, 1.25 mg/kg, reference Y08AG004 infusion (micropigs))?
A: 5.63%

Q: And the Tmax ([1]; female, Gottingen, minipig, plasma, inhaled or intranasal, 25 mg)?
A: 15 min

Q: And the AUC(0-t) ([1]; female, Gottingen, minipig, plasma, inhaled or intranasal, 25 mg, AUC0->last of Remimazolam, minipig animal no. 2, intranasal 25 mg)?
A: ~20 ng·h/mL

Q: What about the AUC(0-t) ([1]; female, Gottingen, minipig, plasma, inhaled or intranasal, 25 mg, AUC0->last of Remimazolam, minipig animal no. 3, intranasal 25 mg) of the same compound?
A: 7 ng·h/mL

Q: What about the Cmax ([1]; female, Gottingen, minipig, plasma, inhaled or intranasal, 25 mg, minipig animal no. 1, intranasal 25 mg, extrapolated below LLOQ) of the same compound?
A: 17.4 ng/mL

Q: What about the Cmax ([1]; female, Gottingen, minipig, plasma, inhaled or intranasal, 25 mg, minipig animal no. 2, intranasal 25 mg, within GLP-validated range) of the same compound?
A: 50.4 ng/mL

Q: And the Cmax ([1]; female, Gottingen, minipig, plasma, inhaled or intranasal, 25 mg, minipig animal no. 3, intranasal 25 mg, extrapolated below LLOQ)?
A: ≤ 8.6 ng/mL

Q: And the bioavailability ([1]; female, Gottingen, minipig, plasma, other: intranasal, 1.25 mg/kg, reference study 32236 (IV infusion, minipigs))?
A: 10.5%

Q: And the concentration at 0.25 h ([1]; female, Gottingen, minipig, plasma, other: intranasal, 25 mg/animal)?
A: 50.4 ng/mL

Q: What about the bioavailability ([1]; female, Gottingen, minipig, plasma, other: intranasal, 25 mg/animal, reference study 32236 (IV infusion, minipigs)) of the same compound?
A: 10%

Q: What about the “Plasma level of Remimazolam (CNS7056), GLP-validated method” value ([1]; minipigs, intranasal 25 mg, all samples except animal no. 2 at 0.25 hours p.a., below LLOQ) of the same compound?
A: < 20 ng/mL

Q: What about the AUC0-last/Dose ([1]; present study (33659), minipig No. 2, intranasal 1.25 mg/kg) of the same compound?
A: 15.94^1 ng*h*kg/ml/mg

Q: What about the NOAEL [5] of the same compound?
A: ≥ 1.25 mg/kg

Q: What about the “NOAEL for local tolerability (nasal mucosa)” value (Gottingen minipigs [6]; dry drug product powder into one nostril) of the same compound?
A: ≥ 25 mg/animal

Q: What about the Body weight (Gottingen minipigs [6]; [12]) of the same compound?
A: No test item-related influence on the body weight was observed

Q: And the Clinical signs (Gottingen minipigs [6]; [12])?
A: No test item-related changes in behavior (except for sedation, see below) or external appearance were observed

Q: And the “Food and drinking water consumption” value (Gottingen minipigs [6]; [12])?
A: No test item-related influence was noted

Q: What about the Mortality (Gottingen minipigs [6]; [12]) of the same compound?
A: None of the animals died

Q: And the “Rhinoscopy: changes of the nasal mucosa (erythema, eschar or oedema formation)” value (Gottingen minipigs [6]; nasal 25 mg Remimazolam/animal)?
A: No test item-related changes of the nasal mucosa

Q: And the AUC0-last [7]?
A: 18215.23 ng·h/mL

Q: What about the AUC0-last/Dose [7] of the same compound?
A: 151.79 ng·kg·h/mL/mg

Q: What about the “Time clinical observations were present following dosing” value (male rats [8]) of the same compound?
A: up to 15 min

Q: What about the Gross pathology (male rats [9]; male rats, Part B necropsy) of the same compound?
A: No test item-related gross findings were noted

Q: What about the “Tolerability of intranasal administration” value (male rats [9]; rats) of the same compound?
A: well tolerated

Q: And the “AUC0-last (data are for 0→∞)” value ([10]; intravenous bolus 1 mg/kg)?
A: 293.3^2 ng*h/ml

Q: What about the “AUC0-last/Dose (data are for 0→∞)” value ([10]; intravenous bolus 1 mg/kg) of the same compound?
A: 293.3^2 ng*h*kg/ml/mg

Q: What about the “AUC0-last (data are for 0→∞)” value ([10]; intravenous infusion 2.4 mg/kg) of the same compound?
A: 676.7^2 ng*h/ml

Q: What about the “AUC0-last/Dose (data are for 0→∞)” value ([10]; intravenous infusion 2.4 mg/kg) of the same compound?
A: 282.9^2 ng*h*kg/ml/mg
